Test results taken from paper PMC5807063 (Science (New York, N.Y.), 2017).

Assays:
[1] = molecular target: T1, HNE in CF patient sputum (Homo sapiens, UniProt P08246); assay: HNE inhibition in CF patient sputum; settings: sputum samples of CF patients
T1 sequence (P08246 30-267): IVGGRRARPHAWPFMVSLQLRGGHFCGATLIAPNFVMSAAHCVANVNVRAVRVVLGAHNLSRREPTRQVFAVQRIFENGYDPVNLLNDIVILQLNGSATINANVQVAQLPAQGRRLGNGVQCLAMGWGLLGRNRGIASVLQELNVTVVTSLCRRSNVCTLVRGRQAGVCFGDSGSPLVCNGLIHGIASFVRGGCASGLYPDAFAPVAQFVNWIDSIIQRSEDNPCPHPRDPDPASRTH

[2] = molecular target: T2, purified HNE (human neutrophil elastase) (Homo sapiens, UniProt P08246); assay: Inhibition of purified human neutrophil elastase
T2 sequence (P08246 30-267): T1 sequence (P08246 30-267)

inhibitory activity in CF patient sputum (in words) [1]: potencies diminished | HNE inhibitory activity (in words) [2]: low IC50 values
Substance: BAY 85-8501 [compound 54]
